Format in all cases: cell-based, human
Experiment [1] relates to Adipose-derived stem cells. As to the kind of experiment: Culture in the presence of 5-azacytidine. The settings on record: exposure to 5-azacytidine. The procedure: Adipose-derived stem cells obtained in accordance with Example 1 were cultured in the presence of 5-azacytidine.
A further experiment deals with Alkaline phosphatase. As to the kind of experiment: Alkaline phosphatase enzyme activity, spectrophotometric. The settings on record: 2 to 3 weeks.
The test system of a further experiment is matrix mineralization. Kind of experiment: Total calcium, spectrophotometric. The procedure:
Cells were washed with PBS (no Ca^2+, no Mg^2+) and harvested in 0.1N HCl. Cells were extracted for a minimum of 4 hours at 4° C. and centrifuged at 1000×g for 5 minutes. Total calcium in the supernatant was determined using Sigma kit #587 and measured at A575 nm. The assay was calibrated using calcium standard solutions. Total protein was determined and the samples were expressed as mM Ca/ug protein. […] Values are expressed as the mean±SD.
Bone formation in vivo is a complex process involving morphogens, hormones and growth factors. Recent work has questioned the efficacy of synthetic glucocorticoids, like dexamethasone (Dex), in mediating osteogenesis. Glucocorticoids appear to inhibit the action of several osteogenic genes including osteocalcin, CBFA-1 and CNI (as reviewed in Cooper, et al., 1999 J. Endocrinol. 163:159-164). It is well established that bone tissue and osteoprogenitor cells are targets of vitamin D action (Chen, et al., 1983 J. Biol. Chem. 258:4350; Chen, et al., 1979 J. Biol. Chem. 254:7491; Narbaitz, et al., 1983 Calcif. Tiss. Int. 35:177) and this metabolite stimulates both AP activity and CNI synthesis by human bone cell populations (Beresford, et al., 1986 Endo 119:1776-1785). […] AP activity and Ca^2+ accumulation were measured over time using commercial kits and normalized with respect to protein and/or time.

The next experiment relates to PLA cells. As to the kind of experiment: Micromass culture chondrogenic nodule formation. The settings on record: induction medium containing TGFβ1 alone. The procedure: Chondrogenic differentiation was induced using a micromass culture protocol as previously described with some modifications (Ahrens, P B, et al., 1977 Dev. Biol. 60:69-82; Denker, A E 1995 Differentiation 59:25-34). Ten microliter drops of the PLA cellular suspension were placed in the center of each well of a 24-well tissue culture plate and on chamber slides. The cells were placed in an incubator at 37° C. at 5% CO2 for two hours to allow cell adherence. The pellets were gently overlaid with control medium and incubated overnight. The medium was replaced by chondrogenic medium [DMEM with 1% FBS supplemented with 10 ng/ml TGF-β1 (R&D Systems, Minneapolis, Minn.), 6.25 μg/ml insulin (Sigma), and 6.25 μg/ml transferrin (Sigma)]. The pellets were induced for six days in chondrogenic medium. At day six and thereafter, 50 μg/ml ascorbic acid-2-phosphate (Sigma) was added to the chondrogenic medium mixture. PLA pellets were harvested at days two, seven, and fourteen after initial induction for analysis. […] HFF cells were cultured as above under micromass and monolayer conditions as a negative control.
In order to assess the relationship of chondrogenic induction to PLA cell, micromass cultures were plated in chondrogenic medium at cell concentrations of 1×10^5, 1×10^6, 2.5×10^6, 5×10^6, 1×10^7, 2×10^7, and 5×10^7 cells per milliliter (cells/ml). […]

Description for Alkaline phosphatase: Cells were washed with PBS and harvested into PBS/0.1% Triton X-100 (PBS/TX100). AP enzyme activity was assayed using a commercial AP enzyme kit (Sigma) and measured at an absorbance of 405 nm. Total protein in each sample was measured based on the Bradford method (Bradford 1976 Anal. Biochem. 72:248-254) using a BCA Protein Assay Kit (Pierce, Rockford, Ill.). AP activity was expressed a nmol p-nitrophenol produced/minute/ug protein. The assay was calibrated using standard p-nitrophenol solutions. Differentiated MSC and NHOst cells were assayed as positive controls while non-induced PLA cells were assayed as a negative control. Values are expressed as the mean±SD.

As for `Nc1ncn([C@@H]2O[C@H](CO)[C@@H](O)[C@H]2O)c(=O)n1` [5-azacytidine], the “myogenic differentiation of adipose-derived stem cells” value in experiment [1] was “did not induce myogenic differentiation”.

As for `C[C@@H]1C[C@H]2[C@@H]3CCC4=CC(=O)C=C[C@]4(C)[C@@]3(F)[C@@H](O)C[C@]2(C)[C@@]1(O)C(=O)CO` [Dex, dexamethasone], the “AP enzyme induction in MSCs” value in the experiment on Alkaline phosphatase (MSCs) came out at 54.2 fold. Also, the “AP enzyme induction in PLA cells” value with Alkaline phosphatase (PLA cells) worked out at 17.2 fold. In the experiment with matrix mineralization, the “overall increase in matrix mineralization in PLA cells” value stood at 56 fold.

For the molecule `C=C1/C(=C\C=C2/CCC[C@]3(C)[C@@H]([C@H](C)CCCC(C)(C)O)CC[C@@H]23)C[C@@H](O)C[C@@H]1O` [VD, 1,25-dihydroxyvitamin D3], in the experiment with matrix mineralization, the “overall increase in matrix mineralization in PLA cells” value is given as 122 fold.

For the molecule “TGFβ1: transforming growth factor-beta 1”, the “nodule formation by PLA cells” value in the experiment on PLA cells is “PLA nodules formed”.

The values above are taken from US7470537B2, “Adipose-derived stem cells and lattices” (priority 1999, dated 2008).
